# Laboratory results taken from patent US6908935B2, “Calcium receptor modulating agents” (Amgen Inc., priority 2002, dated 2005).
# Target: T1, human parathyroid cell Ca^2+ receptor (hPCaR) (Homo sapiens, UniProt P41180)
# T1 construct: expressed in transfected cells
# T1 sequence (P41180 20-1078): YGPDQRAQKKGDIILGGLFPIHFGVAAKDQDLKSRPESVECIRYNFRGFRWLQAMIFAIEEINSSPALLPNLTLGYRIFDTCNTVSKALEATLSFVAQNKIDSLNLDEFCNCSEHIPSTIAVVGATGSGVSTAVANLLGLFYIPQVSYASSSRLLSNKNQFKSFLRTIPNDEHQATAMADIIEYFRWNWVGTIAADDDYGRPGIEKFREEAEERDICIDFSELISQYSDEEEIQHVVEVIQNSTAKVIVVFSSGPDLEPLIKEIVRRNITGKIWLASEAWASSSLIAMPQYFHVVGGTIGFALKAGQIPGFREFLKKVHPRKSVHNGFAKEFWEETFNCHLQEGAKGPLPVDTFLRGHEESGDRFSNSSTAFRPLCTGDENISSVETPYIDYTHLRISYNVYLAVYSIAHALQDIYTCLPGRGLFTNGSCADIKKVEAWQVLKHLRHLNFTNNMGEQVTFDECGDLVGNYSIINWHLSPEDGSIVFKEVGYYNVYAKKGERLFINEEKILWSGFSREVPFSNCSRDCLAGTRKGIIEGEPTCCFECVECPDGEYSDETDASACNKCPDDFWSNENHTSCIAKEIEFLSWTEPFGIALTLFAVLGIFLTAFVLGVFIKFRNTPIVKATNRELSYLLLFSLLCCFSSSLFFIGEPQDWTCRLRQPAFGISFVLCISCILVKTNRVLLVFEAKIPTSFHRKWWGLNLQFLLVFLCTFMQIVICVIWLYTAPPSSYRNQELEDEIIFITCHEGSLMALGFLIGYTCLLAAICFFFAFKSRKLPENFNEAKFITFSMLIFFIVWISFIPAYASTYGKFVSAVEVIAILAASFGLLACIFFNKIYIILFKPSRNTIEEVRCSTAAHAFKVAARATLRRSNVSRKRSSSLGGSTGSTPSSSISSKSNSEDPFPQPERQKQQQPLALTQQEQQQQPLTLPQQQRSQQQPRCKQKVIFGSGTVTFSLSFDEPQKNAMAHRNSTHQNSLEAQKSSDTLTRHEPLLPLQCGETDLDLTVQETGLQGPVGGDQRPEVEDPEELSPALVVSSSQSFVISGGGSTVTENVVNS
# Assay: [Ca2+]i measurement with fluo-3 in HEK 293 4.0-7 cells stably transfected with hPCaR
# Type: cell-based
# Conditions: fluo-3 fluorescence (485/530 nm), effect on [Ca^2+]i
# Summary of the method: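 HEK 293 cells stably expressing human parathyroid Ca2+ receptor (clone 4.0-7), loaded with 2 μM fluo-3 AM for 30 min at 37 °C in parathyroid cell buffer (pH 7.45) with 1 mM CaCl2 and 0.5% BSA. After compound addition, intracellular Ca2+ followed by fluorescence at 485 nm excitation/530 nm emission.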
row,Structure (SMILES),EC50 [µM]
1,"COc1ccc(CN[C@H](C)c2cccc(F)c2)cc1-c1ccc(C(F)(F)F)cc1 [(1R)-1-(3-fluorophenyl)-N-((6-(methyloxy)-4′-(trifluoromethyl)-1,1′-biphenyl-3-yl)methyl)ethanamine]",≤ 10
2,"Cc1ccc([C@@H](C)NCc2cccc(-c3ccc(C)c(C)c3)c2)cc1 [(1R)-N-((3′,4′-dimethyl-1,1′-biphenyl-3-yl)methyl)-1-(4-methylphenyl)ethanamine]",≤ 10
3,COc1ccc(CN[C@H](C)c2cccc3ccccc23)cc1C1CCN(C)CC1 [(1R)-N-((4-(methyloxy)-3-(1-methyl-4-piperidinyl)phenyl)methyl)-1-(1-naphthalenyl)ethanamine],≤ 10
4,"Cc1ccc([C@@H](C)NCc2cccc(-c3ccc(F)cc3)c2)cc1 [(1R)-N-((4′-fluoro-1,1′-biphenyl-3-yl)methyl)-1-(4-methylphenyl)ethanamine]",≤ 10
5,"COc1ccc([C@@H](C)NCc2ccc(OC)c(-c3cccc(C#N)c3)c2)cc1 [2′-(methyloxy)-5′-((((1R)-1-(4-(methyloxy)phenyl)ethyl)amino)methyl)-1,1′-biphenyl-3-carbonitrile]",≤ 10
6,CC(=O)Nc1ccc(-c2cccc(CN[C@H](C)c3cccc4ccccc34)c2)cn1 [N-(5-(3-((((1R)-1-(1-naphthalenyl)ethyl)amino)methyl)phenyl)-2-pyridinyl)acetamide],≤ 10
7,"COc1ccc(CN[C@H](C)c2cccc3ccccc23)cc1-c1ccc2nonc2c1 [(1R)-N-((3-(2,1,3-benzoxadiazol-5-yl)-4-(methyloxy)phenyl)methyl)-1-(1-naphthalenyl)ethanamine]",≤ 10
8,"COc1ccc(CN[C@H](C)c2cccc3ccccc23)cc1-c1cccc(C(=O)O)c1 [2′-(methyloxy)-5′-((((1R)-1-(1-naphthalenyl)ethyl)amino)methyl)-1,1′-biphenyl-3-carboxylic acid]",≤ 10
9,COCCn1cc(-c2cc(CN[C@H](C)c3cccc4ccccc34)ccc2OC)ccc1=O [1-(2-(methyloxy)ethyl)-5-(2-(methyloxy)-5-((((1R)-1-(1-naphthalenyl)ethyl)amino)methyl)phenyl)-2(1H)-pyridinone],≤ 10
10,"COc1ccc(CN[C@H](C)c2ccccc2)cc1-c1nc2ccccc2s1 [(1R)-N-((3-(1,3-benzothiazol-2-yl)-4-(methyloxy)phenyl)methyl)-1-phenylethanamine]",≤ 10
11,"Cc1ccc(CN[C@H](C)c2ccccc2)cc1-c1cccnc1 [Example 451, (1R)-N-((4-methyl-3-(3-pyridinyl)phenyl)methyl)-1-phenylethanamine]",≤ 10
12,COc1ccc(CN[C@H](C)c2ccc(C)cc2)cc1-c1cccnc1 [(1R)-N-((4-(methyloxy)-3-(3-pyridinyl)phenyl)methyl)-1-(4-methylphenyl)ethanamine],≤ 10
13,"COc1ccc(CN[C@H](C)c2cccc3ccccc23)cc1-c1cnc2c(ccn2C)c1 [(1R)-N-((4-(methyloxy)-3-(1-methyl-1H-pyrrolo[2,3-b]pyridin-5-yl)phenyl)methyl)-1-(1-naphthalenyl)ethanamine]",≤ 10
14,"COc1ccc(CN[C@H](C)c2ccccc2)cc1-c1cccc(C(=O)O)c1 [2′-(methyloxy)-5′-((((1R)-1-phenylethyl)amino)methyl)-1,1′-biphenyl-3-carboxylic acid]",≤ 10
15,C[C@@H](NCc1cccc(-c2cnccn2)c1)c1ccccc1 [(1R)-1-phenyl-N-((3-(2-pyrazinyl)phenyl)methyl)ethanamine],≤ 10
16,COc1cccc([C@@H](C)NCc2cccc(-c3cncc(C(N)=O)c3)c2)c1 [5-(3-((((1R)-1-(3-(methyloxy)phenyl)ethyl)amino)methyl)phenyl)-3-pyridinecarboxamide],≤ 10
17,COc1ccc([C@@H](C)NCc2ccc(OC)c(-c3cccnc3)c2)cc1 [(1R)-1-(4-(methyloxy)phenyl)-N-((4-(methyloxy)-3-(3-pyridinyl)phenyl)methyl)ethanamine],≤ 10
18,"CC(=O)Nc1cccc(-c2cccc(CN[C@H](C)c3cccc4ccccc34)c2)c1 [N-(3′-((((1R)-1-(1-naphthalenyl)ethyl)amino)methyl)-1,1′-biphenyl-3-yl)acetamide]",≤ 10

row,Structure (SMILES),EC50 [µM]
1,"COc1cccc([C@@H](C)NCc2ccc(OC)c(-c3ccc4c(c3)OC(F)(F)O4)c2)c1 [(1R)-N-((3-(2,2-difluoro-1,3-benzodioxol-5-yl)-4-(methyloxy)phenyl)methyl)-1-(3-(methyloxy)phenyl)ethanamine]",≤ 10
2,COc1cccc([C@@H](C)NCc2ccc(OC)c(-c3ccsc3)c2)c1 [(1R)-1-(3-(methyloxy)phenyl)-N-((4-(methyloxy)-3-(3-thienyl)phenyl)methyl)ethanamine],≤ 10
3,"Cc1noc(-c2cccc(CN[C@H](C)c3ccccc3)c2)n1 [Example 453, (1R)-N-((3-(3-methyl-1,2,4-oxadiazol-5-yl)phenyl)methyl)-1-phenylethanamine]",≤ 10
4,COc1ccc(CN[C@H](C)c2ccccc2)cc1-c1ccsc1 [(1R)-N-((4-(methyloxy)-3-(3-thienyl)phenyl)methyl)-1-phenylethanamine],≤ 10
5,"COCCOc1ccc(CN[C@H](C)c2cccc(OC)c2)cc1-c1ccc(C(F)(F)F)cc1 [(1R)-N-((6-((2-(methyloxy)ethyl)oxy)-4′-(trifluoromethyl)-1,1′-biphenyl-3-yl)methyl)-1-(3-(methyloxy)phenyl)ethanamine]",≤ 10
6,"COc1ccc(CNC(C)c2cccc(Cl)c2Cl)cc1-c1ccc(C(F)(F)F)cc1 (centres unmarked) [1-(2,3-dichlorophenyl)-N-((6-(methyloxy)-4′-(trifluoromethyl)-1,1′-biphenyl-3-yl)methyl)ethanamine]",≤ 10
7,COc1ccc(CN[C@H](C)c2cccc3ccccc23)cc1-c1csc2ccccc12 [(1R)-N-((3-(1-benzothien-3-yl)-4-(methyloxy)phenyl)methyl)-1-(1-naphthalenyl)ethanamine],≤ 10
8,COc1ccc(CN[C@H](C)c2ccc3ccccc3c2)cc1-c1ccc2[nH]ccc2c1 [(1R)-N-((3-(1H-indol-5-yl)-4-(methyloxy)phenyl)methyl)-1-(2-naphthalenyl)ethanamine],≤ 10
9,"COc1ccc(CN[C@H](C)c2cccc(C#N)c2)cc1-c1ccc(C(F)(F)F)cc1 (stereo in doubt) [3-(1-(((6-(methyloxy)-4′-(trifluoromethyl)-1,1′-biphenyl-3-yl)methyl)amino)ethyl)benzonitrile]",≤ 10
10,"COCCOc1ccc(CN[C@H](C)c2cccc3ccccc23)cc1-c1ccc(C(F)(F)F)cc1 [(1R)-N-((6-((2-(methyloxy)ethyl)oxy)-4′-(trifluoromethyl)-1,1′-biphenyl-3-yl)methyl)-1-(1-naphthalenyl)ethanamine]",≤ 10
11,COc1ccc(CN[C@H](C)c2cccc3ccccc23)cc1-c1ccccn1 [(1R)-N-((4-(methyloxy)-3-(2-pyridinyl)phenyl)methyl)-1-(1-naphthalenyl)ethanamine],≤ 10
12,Cc1ccc(-c2cccc(CN[C@H](C)c3ccc4ccccc4c3)c2)cn1 [(1R)-N-((3-(6-methyl-3-pyridinyl)phenyl)methyl)-1-(2-naphthalenyl)ethanamine],≤ 10
13,COc1cccc([C@@H](C)NCc2ccc(OC)c(-c3ccc(OC)nc3)c2)c1 [(1R)-N-((4-(methyloxy)-3-(6-(methyloxy)-3-pyridinyl)phenyl)methyl)-1-(3-(methyloxy)phenyl)ethanamine],≤ 10
14,"COc1ccc(CN[C@H](C)c2ccc(C)cc2)cc1-c1ccccc1 [(1R)-N-((6-(methyloxy)-1,1′-biphenyl-3-yl)methyl)-1-(4-methylphenyl)ethanamine]",≤ 10
15,COc1ccc(CN[C@H](C)c2cccc3ccccc23)cc1-c1ccc2c(c1)nc(C(F)(F)F)n2C [(1R)-N-((4-(methyloxy)-3-(1-methyl-2-(trifluoromethyl)-1H-benzimidazol-5-yl)phenyl)methyl)-1-(1-naphthalenyl)ethanamine],≤ 10
16,"COc1cccc([C@@H](C)NCc2ccc(OC)c(-c3cccc(C(=O)O)c3)c2)c1 [2′-(methyloxy)-5′-((((1R)-1-(3-(methyloxy)phenyl)ethyl)amino)methyl)-1,1′-biphenyl-3-carboxylic acid]",≤ 10
17,Cc1ccc([C@@H](C)NCc2cccc(-c3ccc(C)nc3)c2)cc1 [(1R)-1-(4-methylphenyl)-N-((3-(6-methyl-3-pyridinyl)phenyl)methyl)ethanamine],≤ 10
